Results on five compounds are retold here after patent US20230000934A1, “METHODS FOR ENGINEERING THERAPEUTICS AND USES THEREOF” (The Trustees of Columbia University In The City of New York, priority 2019, published 2023).

The structures appear in SMILES notation.

The conditions of data set [1]: cited from earlier work.
For data set [2], the system named is cofactor F420 reductase from Methanobacterium thermoautotrophicum. The settings on record: as substrate of the F420 reductase; cited from earlier work.
The test system of data set [3] is Saccharomyces cerevisiae BJ5464. Briefly: Toxicity assay of TAN-1612 in Saccharomyces cerevisiae. The data set is classed as cell-based. The method, then:
The toxicity assay of TAN-1612 in Saccharomyces cerevisiae. BJ5464 strains were cultured in complete synthetic medium in presence of different tetracycline or its analogs. […] (FIG. 42B) BJ5464 strains were cultured in YPD: non-defined medium in presence of different tetracycline or its analogs. (FIG. 42A). […] (FIG. 43).

In data set [4] the test system is S. cerevisiae. The data set is classed as cell-based, Saccharomyces cerevisiae. From the text:
The third primary library (PL3) mediates TAN-1612 high-titer toxicity by merging three complimentary routes. This example (i) optimizes performance of an efflux pump in order to reduce intracellular TAN-1612 concentrations, (ii) screens a large number of wild yeast isolates for higher TAN-1612 tolerance and use them for background crossing and (iii) evolves the v2.0 producer for TAN-1612 resistance through random mutagenesis and selection. In preliminary results, TAN-1612 and anhydrotetracycline (Atc) growth inhibition in concentrations of 10 mg/L was confirmed. In order to increase TAN-1612 tolerance the v2.0 producer co-expresses the supposed efflux pump […]_48051 (GenBank: EHA19824.1) that was obtained by genome-mining from the natural producer strain A. niger. […] This can improve pump performance via gene titration and genome-mines other efflux pumps. PL3 further includes of a large number (>50) of wild S. cerevisiae isolates that are screened for higher tolerance to TAN-1612 using a growth-based microtiter plate assay.

For the compound `OCC1OC(OC(c2ccccc2)c2ccccc2)C(O)C(O)C1O` (stereo not shown), the “Relative rate of acid hydrolysis (to OMe)” value in data set [1] was 25.6. Consider `OCC1OC(OC23CC4CC(CC(C4)C2)C3)C(O)C(O)C1O` (stereo not shown), for which, in data set [1], the “Relative rate of acid hydrolysis (to OMe)” value is listed as 48.5.

What is called Km is the concentration of substrate that gives half-maximal velocity. As for `O=c1nc2n(C[C@H](O)[C@H](O)[C@H](O)CO)c3cc(O)ccc3cc-2c(=O)[nH]1` [Fo, 7,8-didemethyl-8-hydroxy-5-deazariboflavin], the Km in data set [2] was 34 µM. With `COc1cc(O)c2c(O)c3c(cc2c1)CC1(O)CC(=O)C(C(C)=O)=C(O)C1(O)C3=O` (stereo not shown) [TAN-1612], the “toxicity at the range of” value is 50 to 100 mg/L in data set [3] (BJ5464 cultured in YPD non-defined medium) and 1 to 10 mg/L in data set [3] (BJ5464 cultured in complete synthetic medium). The “growth inhibition in concentrations of” value in data set [4] is 10 mg/L. Turning to `Cc1c2c(c(O)c3c(O)cccc13)C(=O)[C@]1(O)C(=O)C(C(N)=O)=C(O)[C@@H](N(C)C)[C@@H]1C2` [anhydrotetracycline, reference compound], the “growth inhibition in concentrations of” value in data set [4] is given as 10 mg/L.
